Source: patent US7067248B2 (priority 2002, dated 2006)

Experiments:
VV [1] = type: cell-based, vaccinia virus
orthopoxvirus = settings: cited from earlier work
VV [2] = settings: cited from earlier work

## c1cnc2c(c1)ccc1ncccc12 [1,7-phenanthroline]
VV [1]
  VV replication: no effect

## c1cnc2c(c1)ccc1cccnc12 [1,10-phenanthroline]
VV [1]
  Inhibition of VV replication (FIG. 12): potent inhibitors of VV replication
  VV replication: completely blocked

## Nc1ccn(C[C@@H](CO)OCP(=O)(O)O)c(=O)n1 [Cidofovir]
orthopoxvirus
  Anti-orthopoxvirus activity: potent anti-orthopoxvirus inhibitor

## NC(=O)CI [iodoacetamide]
VV [1]
  Inhibition of VV replication (FIG. 12): potent inhibitors of VV replication
  VV replication: completely blocked

## CN1C(=O)/C(=N\NC(N)=S)c2ccccc21 [methisazone, N-methylisatin β-thiosemicarbazone]
orthopoxvirus
  Anti-orthopoxvirus activity: effective at inhibiting orthopoxvirus infections in cultured cells

## pepstatin A
VV [1]
  VV replication: no effect

## α-amanitin
VV [2]
  Phenotype of VV replication: abortive-late phenotype
